From patent US20220227765A1, “PYRIDO-INDOLE ANALOGUES AS GPX4 INHIBITORS” (Ferro Therapeutics, Inc., priority 2019, published 2022)
Converted amounts (≈) assume the structure as drawn. Read-outs that look alike come from different tables or passages of the source. Blank lines part the entries; values can stand above or below the compound they belong to.

Legend:
786-O = assay: Cell proliferation (Alamar Blue) assay, 786-O; format: cell-based, human; details: Homo sapiens, 786-0, 24 h, Table B-3, 786-O cells
Experimental: (§1) Cell viability assay was performed to assess the potency of the compounds in human cancer cell lines 786-0 (renal cell carcinoma) and SJSA-1 (osteosarcoma). Additional cell lines, such as pancreatic cancer cell lines (Panc 02.13, BxPC-3, Panc 12, Panc 02.03, Panc 6.03, PSN-1, HPAC, and Capan-1), prostate cancer cell lines (PC-3, DU145, 22Rv1, NCI-H660, BPH1, LNCaP, BM-1604, and MDA PCa 2b), etc., can be tested in a similar method.
(§2) Cells (SJSA-1, 786-0 and A431) were seeded (5000 cells/100 μL/well) in 96-well tissue culture plate and incubated at 37° C./5% CO2 for 16-24 hours. The cells were then treated with compounds (25 μL of 5×). The compound concentrations were 10-0.0005 μM prepared in 3-fold serial dilutions with final DMSO concentration of 1%. The plates were then incubated for 24 h at 37° C./5% CO2 in a moist environment. Then Alamar Blue™ reagent (final concentration 1×-12.5 μL) was added to each well and incubated for 1.5 hours at 37° C./5% CO2. The plates were read on fluorescence reader at 540 nm excitation and 590 nm emission wavelengths. The IC50 values were subsequently determined using a sigmoidal dose-response curve (variable slope) in GraphPad Prism® 5 software. Table A-3, Table B-3 and Table C-3 show cell proliferation data for certain compounds as described herein.

A431 = assay: Cell proliferation (Alamar Blue) assay, A431; format: cell-based, human; details: Homo sapiens, A-431, 24 h, Table B-3, A431 cells
Experimental: as §1, §2

SJSA-1 = assay: Cell proliferation (Alamar Blue) assay, SJSA-1; format: cell-based, human; details: Homo sapiens, SJSA-1, 24 h, Table B-3, head prints SJSB-1, 24 h, read-out: IC50 (μM) SJSB-1
Experimental: as §1, §2

[1] = CD-1 Mouse Whole Blood Stability Assay; format: in vitro ADME; details: Table B-6, incubation at 37° C.
[2] = Equilibrium solubility at different pHs and with SBECD; format: physicochemical; details: thermodynamic from solid
[3] = Human hepatocyte metabolic stability; format: in vitro ADME
[4] = Rat hepatocyte metabolic stability; format: in vitro ADME
[5] = Kinetic solubility (PBS, pH 7.4); format: physicochemical; details: for solubility kinetic: aqueous buffer, kinetic from dmso stock
Human blood stability = format: in vitro ADME
[6] = aqueous with cosolvent or surfactant or cyclodextrin, 20% SBECD (sulfobutyl ether cyclodextrin), read-out: Eq. solubility 20% SBECD
[7] = aqueous buffer, pH 3.0 PBS buffer, read-out: Eq. solubility pH 3.0 PBS buffer

Compound: C#CC(=O)N1[C@@H](CCCC)Cc2c([nH]c3c(F)cc(F)cc23)[C@@H]1c1ccc(C#N)nc1 [Compound B-51]
- IC50 (786-O): 0.07 µM
- IC50 (A431): 1.1 µM
- IC50 (SJSA-1): 0.01 µM
- CD-1 Mouse Whole Blood Stability % Remaining ([1]; 0 min): 100%
- CD-1 Mouse Whole Blood Stability % Remaining ([1]; 30 min): 0%
- CD-1 Mouse Whole Blood Stability % Remaining ([1]; 60 min): 0%

Compound: C#CC(=O)N1[C@@H](CCCC)Cc2c([nH]c3c(F)cc(F)cc23)[C@@H]1c1ccc(-c2nnn[nH]2)cc1 [Compound B-50]
- CD-1 Mouse Whole Blood Stability % Remaining ([1]; 0 min): 100%
- CD-1 Mouse Whole Blood Stability % Remaining ([1]; 30 min): 22.3%
- CD-1 Mouse Whole Blood Stability % Remaining ([1]; 60 min): 10.5%

Compound: C#CC(=O)N1[C@@H](CCCC)Cc2c([nH]c3c(F)cc(F)cc23)[C@@H]1C1CCN(C(=O)OC)CC1 [Compound B-28]
- IC50 (786-O): 0.032 µM
- IC50 (A431): 8.1 µM
- IC50 (SJSA-1): 0.06 µM
- CD-1 Mouse Whole Blood Stability % Remaining ([1]; 0 min): 100.0%
- CD-1 Mouse Whole Blood Stability % Remaining ([1]; 30 min): 9.6%
- CD-1 Mouse Whole Blood Stability % Remaining ([1]; 60 min): 2.1%

Compound: C#CC(=O)N1[C@@H](CCCC)Cc2c([nH]c3c(F)cc(F)cc23)[C@@H]1c1ccc(N2CCN(C(C)=O)CC2)c(C#N)c1 [Compound B-32]
- IC50 (786-O): 0.018 µM
- solubility ([2]; aqueous buffer, pH 3.0, read-out: Eq. solubility pH 3.0): < 1 µg/mL
- solubility [2, 7]: < 1 µg/mL
- solubility [2, 6]: 9 to 18 µg/mL (≈ 16.6 to 33.1 µM)
- IC50 (SJSA-1): 0.029 µM
- solubility kinetic ([5]; Table B-7): < 1 µM

Compound: C#CC(=O)N1[C@@H](CCCC)Cc2c([nH]c3ccccc23)[C@@H]1c1ccc(NC(=O)c2ccncc2)cc1 [Compound B-15]
- IC50 (786-O): 0.013 µM
- IC50 (A431): > 10 µM
- IC50 (SJSA-1): 0.029 µM

Compound: C#CC(=O)N1[C@@H](CC)Cc2c([nH]c3c(F)cc(F)cc23)[C@@H]1c1ccc(F)cc1 [Compound B-61]
- IC50 (786-O): 0.062 µM
- IC50 (A431): > 10 µM
- IC50 (SJSA-1): 0.068 µM

The next lines start with the values.

- IC50 (786-O): 0.01 µM
- IC50 (A431): 6.6 µM
- solubility [2, 6]: 10 µg/mL (≈ 20.9 µM)
- human hepatocytes extr. Ratio [3]: 0.8
- human hepatocytes % met @ 180 min ([3]; 180 min): 73%
- half-life ([3]; human hepatocytes, read-out: human hepatocytes T1/2): 1.63 h
- hepatocyte CLint ([3]; human hepatocytes, read-out: human hepatocytes h Clintr (μL/min/10^6 cells)): 28 µL/min/1e6 cells
- rat hepatocytes extr. Ratio [4]: 0.78
- rat hepatocytes % met @ 180 min ([4]; 180 min): 94%
- half-life ([4]; rat hepatocytes, read-out: rat hepatocytes T1/2): 1.13 h
- hepatocyte CLint ([4]; rat hepatocytes, read-out: rat hepatocytes h Clintr (μL/min/10^6 cells)): 41 µL/min/1e6 cells
- IC50 (SJSA-1): 0.019 µM
- Kinetic solubility (PBS, pH 7.4, μM) ([5]; Table B-7): <1 μM
- solubility kinetic ([5]; Table B-4): < 1 µM
- human blood stability % remaining (Human blood stability; 15 min): 107%_15
- human blood stability % remaining (Human blood stability; 30 min): 31%_30
- human blood stability % remaining (Human blood stability; 45 min): 15%_45
- human blood stability % remaining (Human blood stability; 60 min): 8.4%_60
- human blood stability % remaining (Human blood stability; 120 min): 0%_120
Compound: C#CC(=O)N1[C@@H](CCCC)Cc2c([nH]c3c(F)cc(F)cc23)[C@@H]1c1ccc(NC(=O)OCC)cc1 [Compound B-35]

- IC50 (786-O): 0.002 µM
- human hepatocytes extr. Ratio [3]: 0.82
- rat hepatocytes extr. Ratio [4]: 0.9
- IC50 (SJSA-1): 0.002 µM
- solubility kinetic ([5]; Table B-4): 1 µM (≈ 0.455 µg/mL)
- human blood stability % remaining (Human blood stability; 15 min): 36%_15
- human blood stability % remaining (Human blood stability; 30 min): 41%_30
- human blood stability % remaining (Human blood stability; 45 min): 11%_45
- human blood stability % remaining (Human blood stability; 60 min): 9%_60
- human blood stability % remaining (Human blood stability; 120 min): 0%_120
Compound: C#CC(=O)N1[C@@H](CCCC)Cc2c([nH]c3ccccc23)[C@@H]1c1ccc(C(=O)NC2CCC2)nc1 [Compound B-5, 5-((1S,3S)-3-butyl-2-propioloyl-2,3,4,9-tetrahydro-1H-pyrido[3,4-b]indol-1-yl)-N-cyclobutylpicolinamide]

- IC50 (786-O): 0.015 µM
- IC50 (A431): 3 µM
- IC50 (SJSA-1): 0.019 µM
Compound: CCCC[C@H]1Cc2c([nH]c3ccccc23)[C@H](c2ccc(NC(=O)c3ccncc3)cc2)N1C(=O)CCl [Compound B-14]

- IC50 (786-O): > 10 µM
- IC50 (A431): > 10 µM
- IC50 (SJSA-1): > 10 µM
Compound: C#CC(=O)N1[C@@H](CCCC)Cc2c([nH]c3c(F)cc(F)cc23)[C@@H]1c1ccc(NC(=O)CCCCC(=O)O)cc1 [Compound B-87]

- IC50 (786-O): 0.121 µM
- IC50 (A431): > 10 µM
- solubility [2, 7]: < 1 µg/mL
- solubility [2, 6]: > 1090 µg/mL
- IC50 (SJSA-1): 0.257 µM
Compound: C#CC(=O)N1[C@@H](CCCC)Cc2c([nH]c3c(F)cc(F)cc23)[C@@H]1c1cnn(C)c1 [Compound B-33]

- IC50 (786-O): 0.123 µM
- IC50 (A431): > 10 µM
- IC50 (SJSA-1): 0.167 µM
Compound: C#CC(=O)N1[C@@H](CCCC)Cc2c([nH]c3c(F)cc(F)cc23)[C@@H]1c1nccn1C [Compound B-24]
